Converted amounts (≈) assume the structure as drawn.
How the values were obtained:
Assay in all cases: antibacterial MIC, microtiter dilution
[1] = test system: Acinetobacter baumannii; conditions: for Minimal inhibitory concentration: Mueller Hinten; for MIC: read-out: Minimal inhibitory concentration
[2] = test system: Kocuria rhizophila ATCC9341; conditions: for Minimal inhibitory concentration: Kocuria rhizophila ATCC9341, Nutrient broth; for MIC: Kocuria rhizophila, ATCC9341, read-out: Minimal inhibitory concentration
[3] = test system: S. aureus NorA; conditions: for Minimal inhibitory concentration: S. aureus 8325 NorA disruption mutant, Mueller Hinten; for MIC: Staphylococcus aureus, read-out: Minimal inhibitory concentration
[4] = test system: Staphylococcus aureus ATCC6538P; conditions: for Minimal inhibitory concentration: Staphylococcus aureus ATCC6538P, LB; for MIC: Staphylococcus aureus, ATCC6538P, read-out: Minimal inhibitory concentration
[5] = test system: Multidrug resistant S. aureus (MRSA); conditions: for Minimal inhibitory concentration: Multidrug resistant S. aureus (MRSA), Mueller Hinten; for MIC: Staphylococcus aureus, MRSA, read-out: Minimal inhibitory concentration
[6] = test system: Escherichia. coli TolC; conditions: Mueller Hinten; for Minimal inhibitory concentration: E. coli W3110 TolC disruption mutant; for MIC: Escherichia coli, read-out: Minimal inhibitory concentration, E. coli W3110 TolC disruption mutant
[7] = test system: Bacillus subtillis DHS5333; conditions: for Minimal inhibitory concentration: Bacillus subtillis DHS5333, LB; for MIC: Bacillus, DHS5333, read-out: Minimal inhibitory concentration
[8] = test system: Deinococcus radiodurans; conditions: 60 h; for Minimal inhibitory concentration: Special media, 30° C.; for MIC: read-out: Minimal inhibitory concentration, Deinococcus radiodurans, Special media, 30° C.

Row | SMILES | Minimal inhibitory concentration [1] [µM] | Minimal inhibitory concentration [2] [µM] | Minimal inhibitory concentration [3] [µM] | Minimal inhibitory concentration [4] [µM] | Minimal inhibitory concentration [5] [µM] | Minimal inhibitory concentration [6] [µM] | Minimal inhibitory concentration [7] [µM] | Minimal inhibitory concentration [8] [µM] | MIC [1] [µM] | MIC [2] [µM] | MIC [3] [µM] | MIC [4] [µM] | MIC [5] [µM] | MIC [6] [µM] | MIC [7] [µM] | MIC [8] [µM]
1 | CC[C@H]1OC(=O)[C@H](C)C(=O)[C@H](C)[C@@H](O[C@@H]2O[C@H](C)C[C@H](N(C)C)[C@H]2O)[C@@H](C)C[C@@H](C)C(=O)/C=C/[C@]1(C)O [Compound 5, pikromycin, reference compound] | >400 | 6.2 (≈ 3.26 µg/mL) | 12.5 (≈ 6.57 µg/mL) | 25 (≈ 13.1 µg/mL) | >400 | 100 (≈ 52.6 µg/mL) | 12.5 (≈ 6.57 µg/mL) | 100 (≈ 52.6 µg/mL) | – | – | – | – | – | – | – | –
2 | CC[C@H]1OC(=O)[C@H](C)[C@@H](O[C@@H]2O[C@H](C)C[C@H](N(C)C)[C@H]2O)[C@@H](C)C[C@@H](C)C(=O)/C=C/[C@]1(C)O [Compound 2, methymycin, reference compound] | – | – | – | – | – | – | – | – | > 400 | 50 (≈ 23.5 µg/mL) | 100 (≈ 47 µg/mL) | 100 (≈ 47 µg/mL) | > 400 | 50 (≈ 23.5 µg/mL) | 100 (≈ 47 µg/mL) | 200 (≈ 93.9 µg/mL)
3 | C[C@@H]1C[C@H](N(C)C)[C@@H](O)[C@H](OC2CCCCCCC(O)CCCCC2)O1 (single isomer, unassigned) [Compound 8-C7OH-b] | >400 | >400 | >400 | >400 | >400 | 400 (≈ 149 µg/mL) | >400 | 100 (≈ 37.2 µg/mL) | – | – | – | – | – | – | – | –
4 | C[C@@H]1C[C@H](N(C)C)[C@@H](O)[C@H](OC2CCCCCCC(O)CCCCC2)O1 (single isomer, unassigned) [Compound 8-C7OH-a] | – | – | – | – | – | – | – | 400 (≈ 149 µg/mL) | > 400 | > 400 | > 400 | > 400 | > 400 | > 400 | > 400 | –
5 | OC1CCCCCCCCCCCCCC1 [Cyclopentadecanol, reference compound] | – | – | – | – | – | – | – | – | > 400 | > 400 | > 400 | > 400 | > 400 | > 400 | > 400 | > 400
6 | OC1CCCCCCCCCCCC1 [Cyclotridecanol, reference compound] | – | – | – | – | – | – | – | – | > 400 | > 400 | > 400 | > 400 | > 400 | > 400 | > 400 | > 400
7 | C[C@@H]1C[C@H](N(C)C)[C@@H](O)[C@H](OC2CCCCCCCC(O)CCCC2)O1 (stereo partly drawn) [Compound 8-C6OH-b, (2S,3R,4S,6R)-4-(dimethylamino)-2-(6-hydroxycyclotridecyloxy)-6-methyltetrahydro-2H-pyran-3-ol] | >400 | >400 | >400 | >400 | >400 | >400 | >400 | 400 (≈ 149 µg/mL) | – | – | – | – | – | – | – | –
8 | CC[C@H]1OC(=O)[C@H](C)C(=O)[C@H](C)[C@@H](O[C@@H]2O[C@H](C)C[C@H](N(C)C)[C@H]2O)[C@@H](C)C[C@@H](C)C(=O)/C=C/[C@H]1C [Compound 4, narbomycin, reference compound] | >400 | <3.1 | 3.1 (≈ 1.58 µg/mL) | 6.2 (≈ 3.16 µg/mL) | >400 | 25 (≈ 12.7 µg/mL) | <3.1 | 100 (≈ 51 µg/mL) | – | – | – | – | – | – | – | –
9 | C[C@@H]1C[C@H](N(C)C)[C@@H](O)[C@H](OC2CCCCCCCC(O)CCCC2)O1 (stereo partly drawn) [Compound 8-C6OH-a, (2S,3R,4S,6R)-4-(dimethylamino)-2-(6-hydroxycyclotridecyloxy)-6-methyltetrahydro-2H-pyran-3-ol] | – | – | – | – | – | – | – | – | > 400 | > 400 | > 400 | > 400 | > 400 | > 400 | > 400 | > 400
